Consider three compounds from ChEMBL document CHEMBL1158688, “Synthesis and characterization of the 7-(4-aminomethyl-1H-1,2,3-triazol-1-yl) analogue of kabiramide C” (J Nat Prod, 2005).

The source made the active and inactive calls. No cut-off for these calls is given here.

The species named for this assay is Oryctolagus cuniculus. The assay can be described thus: Binding affinity to rabbit Prodan-labeled G-actin.
As for `CO[C@H]([C@H](C)/C=C/N(C)C=O)[C@@H](C)C(=O)CC[C@H](C)[C@@H](C[C@@H]1OC(=O)CC(OC(N)=O)C[C@H](C)C[C@@H](N=[N+]=[N-])[C@H](C)[C@@H](OC)c2coc(n2)-c2coc(n2)-c2coc(n2)/C=C/C[C@H](OC)[C@H]1C)OC` (stereo partly drawn), the outcome was Active.
The same measure for `CO[C@H]([C@H](C)/C=C/N(C)C=O)[C@@H](C)C(=O)CC[C@H](C)[C@@H](C[C@@H]1OC(=O)CC(OC(N)=O)C[C@H](C)C[C@@H](n2cc(CN)nn2)[C@H](C)[C@@H](OC)c2coc(n2)-c2coc(n2)-c2coc(n2)/C=C/C[C@H](OC)[C@H]1C)OC` (stereo partly drawn): “Active”; for `CO[C@H]([C@H](C)/C=C/N(C)C=O)[C@@H](C)C(=O)CC[C@H](C)[C@@H](C[C@@H]1OC(=O)CC(OC(N)=O)C[C@H](C)C[C@@H](n2cc(CNC(=O)OCC3c4ccccc4-c4ccccc43)nn2)[C@H](C)[C@@H](OC)c2coc(n2)-c2coc(n2)-c2coc(n2)/C=C/C[C@H](OC)[C@H]1C)OC` (stereo partly drawn): “Active”.
